How the values were obtained:
[1] = tested on: NCI-H358 cells (K-Ras G12C); experiment: Potency assay: pERK in NCI-H358 cells; assay type: cell-based, human; details: Homo sapiens, NCI-H358; H358 KRAS G12C; read-out: pERK EC50
How it was run: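 Compounds are dosed as ten 3-fold dilutions from a 10 mM DMSO stock, in duplicate, and left on cells for 4 h at 37 °C, 5% CO2. Phospho-ERK1/2 is then quantified by AlphaLISA SureFire Ultra or In-Cell Western, and IC50 is derived from a 4-parameter sigmoid against log concentration.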

KRAS G12D = KRAS G12D (Homo sapiens (Human), UniProt P01116+P62937, G12D); experiment: Ras-Raf (BRAF RBD) disruption / FRET / MOA assay, KRAS G12D; assay type: biochemical; details: Ras-Raf disruption/FRET/MOA assay; class symbols; read-out: KRAS G12D FRET data IC50
How it was run: (§1)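 Ras:RAF disruption was scored as a fall in TR-FRET ratio relative to DMSO. Compound ranged in 3-fold steps over 10 points from 30 μM final; incubation ran 3 h at 25° C, detection antibodies a further 1.5 h. Reported as IC50.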

KRAS G12S = KRAS G12S (Homo sapiens (Human), UniProt P01116+P62937, G12S); experiment: Ras-Raf (BRAF RBD) disruption / FRET / MOA assay, KRAS G12S; assay type: biochemical; details: Ras-Raf disruption/FRET/MOA assay; class symbols; read-out: KRAS G12S FRET data IC50
How it was run: as §1

NRAS G12C = NRAS G12C (Homo sapiens (Human), UniProt P01111+P62937, G12C); experiment: Ras-Raf (BRAF RBD) disruption / FRET / MOA assay, NRAS G12C; assay type: biochemical; details: read-out: IC50* NRAS G12C FRET data
How it was run: as §1

KRAS WT = KRAS WT (Homo sapiens (Human), UniProt P01116+P62937); experiment: Ras-Raf (BRAF RBD) disruption / FRET / MOA assay, KRAS WT; assay type: biochemical; details: read-out: IC50* KRAS WT FRET data
How it was run: as §1

KRAS G12V = KRAS G12V (Homo sapiens (Human), UniProt P01116+P62937, G12V); experiment: Ras-Raf (BRAF RBD) disruption / FRET / MOA assay, KRAS G12V; assay type: biochemical; details: read-out: IC50* KRAS G12V FRET data
How it was run: as §1

K-Ras G12C = K-Ras G12C (Homo sapiens (Human), UniProt P01116+P62937, G12C); experiment: Ras-Raf (BRAF RBD) disruption / FRET / MOA assay, KRAS G12C; assay type: biochemical; details: KRAS G12C; Ras-Raf disruption/FRET/MOA assay; read-out: IC50* KRAS G12C FRET data
How it was run: as §1

KRAS G13D = KRAS G13D (Homo sapiens (Human), UniProt P01116+P62937, G13D); experiment: Ras-Raf (BRAF RBD) disruption / FRET / MOA assay, KRAS G13D; assay type: biochemical; details: read-out: IC50* KRAS G13D FRET data
How it was run: as §1

NCI-H358 (K-Ras G12C) = experiment: CellTiter-Glo cell viability assay, NCI-H358; assay type: cell-based, human; details: Homo sapiens, NCI-H358, 120 h, NCI-H358, 5-day treatment; class symbols; read-out: Additional H358 Cell Viability assay data (K-Ras G12C, IC50)
How it was run: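 Four-parameter logistic fits were applied to luminescence data normalized against DMSO-treated wells. Readings were taken on day 5 following direct compound addition, after roughly 30 minutes at room temperature.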

K-Ras G13C = K-Ras G13C (Homo sapiens (Human), UniProt P01116+P62937, G13C); experiment: Ras-Raf (BRAF RBD) disruption / FRET / MOA assay, KRAS G13C; assay type: biochemical; details: KRAS G13C; Ras-Raf disruption/FRET/MOA assay; read-out: IC50* KRAS G13C FRET data
How it was run: as §1

Sequence of KRAS G13D (P01116-2 other isoform, or with tags, fused parts or gaps G13D): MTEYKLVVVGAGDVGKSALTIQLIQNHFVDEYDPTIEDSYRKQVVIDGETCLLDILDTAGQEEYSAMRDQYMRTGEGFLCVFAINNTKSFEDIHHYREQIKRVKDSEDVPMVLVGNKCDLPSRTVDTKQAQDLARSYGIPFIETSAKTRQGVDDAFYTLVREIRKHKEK
Sequence of KRAS G13D (P62937 whole entry): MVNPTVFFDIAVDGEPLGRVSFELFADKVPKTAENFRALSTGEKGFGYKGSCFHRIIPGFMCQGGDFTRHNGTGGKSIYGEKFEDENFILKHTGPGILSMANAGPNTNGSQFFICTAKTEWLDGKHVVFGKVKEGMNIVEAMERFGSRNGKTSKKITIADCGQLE
Sequence of NRAS G12C (P01111 whole entry G12C): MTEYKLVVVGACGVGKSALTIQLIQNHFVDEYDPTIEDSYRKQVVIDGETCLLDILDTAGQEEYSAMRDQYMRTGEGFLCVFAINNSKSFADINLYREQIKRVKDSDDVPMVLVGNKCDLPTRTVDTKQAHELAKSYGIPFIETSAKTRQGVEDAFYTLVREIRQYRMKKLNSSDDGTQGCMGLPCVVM
Sequence of NRAS G12C (P62937 whole entry): as the sequence (P62937 whole entry) above
Sequence of KRAS G12V (P01116-2 other isoform, or with tags, fused parts or gaps G12V): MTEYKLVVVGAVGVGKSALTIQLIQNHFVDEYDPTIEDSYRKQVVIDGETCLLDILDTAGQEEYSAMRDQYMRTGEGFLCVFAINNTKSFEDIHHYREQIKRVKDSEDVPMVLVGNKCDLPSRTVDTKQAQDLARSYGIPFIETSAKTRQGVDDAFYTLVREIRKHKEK
Sequence of KRAS G12V (P62937 whole entry): as the sequence (P62937 whole entry) above
Sequence of KRAS G12S (P01116-2 other isoform, or with tags, fused parts or gaps G12S): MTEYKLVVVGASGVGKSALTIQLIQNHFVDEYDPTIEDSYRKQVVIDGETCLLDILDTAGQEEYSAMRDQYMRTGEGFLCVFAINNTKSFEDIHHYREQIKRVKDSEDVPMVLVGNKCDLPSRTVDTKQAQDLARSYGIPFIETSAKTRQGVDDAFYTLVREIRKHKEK
Sequence of KRAS G12S (P62937 whole entry): as the sequence (P62937 whole entry) above
Sequence of KRAS G12D (P01116-2 other isoform, or with tags, fused parts or gaps G12D): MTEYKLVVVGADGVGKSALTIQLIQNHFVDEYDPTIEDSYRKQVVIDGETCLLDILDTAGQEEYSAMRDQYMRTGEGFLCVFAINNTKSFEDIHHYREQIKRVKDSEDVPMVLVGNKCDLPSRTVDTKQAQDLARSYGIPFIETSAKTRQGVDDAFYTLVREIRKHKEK
Sequence of KRAS G12D (P62937 whole entry): as the sequence (P62937 whole entry) above
Sequence of K-Ras G13C (P01116-2 other isoform, or with tags, fused parts or gaps G13C): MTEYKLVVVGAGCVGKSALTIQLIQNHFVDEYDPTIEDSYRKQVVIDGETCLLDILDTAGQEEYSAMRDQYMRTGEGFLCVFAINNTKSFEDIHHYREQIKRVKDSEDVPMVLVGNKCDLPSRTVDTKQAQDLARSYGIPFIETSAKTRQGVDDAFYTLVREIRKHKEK
Sequence of K-Ras G13C (P62937 whole entry): as the sequence (P62937 whole entry) above
Sequence of KRAS WT (P01116-2 other isoform, or with tags, fused parts or gaps): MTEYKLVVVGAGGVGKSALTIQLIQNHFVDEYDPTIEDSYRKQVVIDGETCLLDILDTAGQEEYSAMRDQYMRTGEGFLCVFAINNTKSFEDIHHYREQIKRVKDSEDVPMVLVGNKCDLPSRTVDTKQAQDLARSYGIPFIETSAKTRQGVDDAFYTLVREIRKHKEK
Sequence of KRAS WT (P62937 whole entry): as the sequence (P62937 whole entry) above
Sequence of K-Ras G12C (P01116-2 other isoform, or with tags, fused parts or gaps G12C): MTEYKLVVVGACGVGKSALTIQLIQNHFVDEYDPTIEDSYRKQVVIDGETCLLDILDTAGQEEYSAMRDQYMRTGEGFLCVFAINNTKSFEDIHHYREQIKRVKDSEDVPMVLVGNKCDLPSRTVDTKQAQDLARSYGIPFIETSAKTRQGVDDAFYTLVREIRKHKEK
Sequence of K-Ras G12C (P62937 whole entry): as the sequence (P62937 whole entry) above

Row | Compound | EC50 [1] | IC50 (KRAS G12D) | IC50 (KRAS G12S) | IC50 (NRAS G12C) | IC50 (KRAS WT) | IC50 (KRAS G12V) | IC50 (K-Ras G12C) | IC50 (KRAS G13D) | IC50 (NCI-H358 (K-Ras G12C)) | IC50 (K-Ras G13C)
1 | CCn1c(-c2cccnc2[C@H](C)OC)c2c3cc(ccc31)-c1cc(cc(C(F)F)c1)C[C@H](NC(=O)[C@H](C1CCCC1)N(C)C(=O)[C@H]1CCN(C(=O)C#CC(C)(C)N3CCC3)C1)C(=O)N1CCC[C@H](N1)C(=O)OCC(C)(C)C2 (atropisomer, axis not shown) [Example A456] | < 5 µM | 1 to 10 µM | 1 to 10 µM | 0.01 to 0.1 µM | 1 to 10 µM | 1 to 10 µM | 0.01 to 0.1 µM | 1 to 10 µM | < 0.01 µM | 1 to 10 µM
2 | C=CC(=O)N1CCC2(CC1)OCN([C@H](C(=O)N[C@H]1Cc3cccc(c3)-c3ccc4c(c3)c(c(-c3cccnc3[C@H](C)OC)n4CC)CC(C)(C)COC(=O)[C@@H]3CCCN(N3)C1=O)C(C)C)C2=O (atropisomer, axis not shown) [Example A457] | < 5 µM | > 10 µM | 1 to 10 µM | 0.1 to 1 µM | 0.1 to 1 µM | 1 to 10 µM | 0.1 to 1 µM | 1 to 10 µM | 0.01 to 0.1 µM | 0.1 to 1 µM
3 | C=CC(=O)N1C[C@@H](C(=O)N(C)[C@H](C(=O)N[C@H]2Cc3cccc(c3)-c3ccc4c(c3)c(c(-c3cccnc3[C@H](C)OC)n4CC)CC(C)(C)COC(=O)[C@@H]3CCCN(N3)C2=O)C(C)C)C(C)(C)C1 (atropisomer, axis not shown) [Example A458] | < 5 µM | > 10 µM | 1 to 10 µM | 0.01 to 0.1 µM | 1 to 10 µM | 1 to 10 µM | 0.01 to 0.1 µM | 1 to 10 µM | 0.01 to 0.1 µM | 0.1 to 1 µM
4 | C=CC(=O)N1CC(OC[C@H](C(=O)N[C@H]2Cc3nc(cs3)-c3ccc4c(c3)c(c(-c3cccnc3[C@H](C)OC)n4CC)CC(C)(C)COC(=O)[C@@H]3CCCN(N3)C2=O)C(C)C)C1 (atropisomer, axis not shown) [Example A462] | < 5 µM | > 10 µM | 1 to 10 µM | 0.1 to 1 µM | 1 to 10 µM | 1 to 10 µM | 0.1 to 1 µM | > 10 µM | < 0.01 µM | 1 to 10 µM
5 | C=CC(=O)N1CC(C(=O)N(C)[C@H](C(=O)N[C@H]2Cc3cccc(c3)-c3ccc4c(c3)c(c(-c3cccnc3[C@H](C)OC)n4CC)CC(C)(C)COC(=O)[C@@H]3CCCN(N3)C2=O)C(C)C)C1 (atropisomer, axis not shown) [Example A467] | < 5 µM | > 10 µM | > 10 µM | 0.1 to 1 µM | > 10 µM | > 10 µM | 1 to 10 µM | > 10 µM | 0.01 to 0.1 µM | 1 to 10 µM
6 | C=CC(=O)N1CC[C@H](C(=O)N(C)[C@H](C(=O)N[C@H]2Cc3cccc(c3)-c3ccc4c(c3)c(c(-c3cccnc3[C@H](C)OC)n4CC)CC(C)(C)COC(=O)[C@@H]3CCCN(N3)C2=O)C2COC2)C1 (atropisomer, axis not shown) [Example A469] | < 5 µM | > 10 µM | 1 to 10 µM | 0.1 to 1 µM | 1 to 10 µM | 1 to 10 µM | 0.1 to 1 µM | 1 to 10 µM | 0.1 to 1 µM | 1 to 10 µM
7 | C=CC(=O)N1CC[C@]2(CCN([C@H](C(=O)N[C@H]3Cc4cccc(c4)-c4ccc5c(c4)c(c(-c4cccnc4[C@H](C)OC)n5CC)CC(C)(C)COC(=O)[C@@H]4CCCN(N4)C3=O)C(C)C)C2=O)C1 (atropisomer, axis not shown) [Example A470] | < 5 µM | 1 to 10 µM | 0.1 to 1 µM | 0.1 to 1 µM | 1 to 10 µM | 1 to 10 µM | 0.1 to 1 µM | 1 to 10 µM | 0.01 to 0.1 µM | 0.1 to 1 µM
8 | C=CC(=O)N1CC[C@@]2(CCN([C@H](C(=O)N[C@H]3Cc4cccc(c4)-c4ccc5c(c4)c(c(-c4cccnc4[C@H](C)OC)n5CC)CC(C)(C)COC(=O)[C@@H]4CCCN(N4)C3=O)C(C)C)C2=O)C1 (atropisomer, axis not shown) [Example A471] | < 5 µM | > 10 µM | 1 to 10 µM | 0.1 to 1 µM | 1 to 10 µM | > 10 µM | 0.1 to 1 µM | > 10 µM | 0.01 to 0.1 µM | 0.1 to 1 µM
9 | CCn1c(-c2cccnc2[C@H](C)OC)c2c3cc(ccc31)-c1csc(n1)C[C@H](NC(=O)CCOC1CN(C(=O)C#CC(C)(C)N3CCC3)C1)C(=O)N1CCC[C@H](N1)C(=O)OCC(C)(C)C2 (atropisomer, axis not shown) [Example A477] | < 5 µM | > 10 µM | > 10 µM | 0.01 to 0.1 µM | 1 to 10 µM | 1 to 10 µM | < 0.01 µM | > 10 µM | 0.01 to 0.1 µM | 1 to 10 µM
10 | CCn1c(-c2cccnc2[C@H](C)OC)c2c3cc(ccc31)-c1cccc(c1)C[C@H](NC(=O)CCOC1CN(C(=O)C#CC(C)(C)N3CCC3)C1)C(=O)N1CCC[C@H](N1)C(=O)OCC(C)(C)C2 (atropisomer, axis not shown) [Example A478] | < 5 µM | > 10 µM | > 10 µM | 0.01 to 0.1 µM | > 10 µM | > 10 µM | 0.01 to 0.1 µM | > 10 µM | 0.01 to 0.1 µM | > 10 µM
11 | CCn1c(-c2cccnc2[C@H](C)OC)c2c3cc(ccc31)-c1csc(n1)C[C@H](NC(=O)[C@H](C(C)C)N(C)C(=O)N1CCN(C(=O)C#CC(C)(C)N(C)C)CC1)C(=O)N1CCC[C@H](N1)C(=O)OCC(C)(C)C2 (atropisomer, axis not shown) [Example A479] | < 5 µM | 0.1 to 1 µM | 0.01 to 0.1 µM | < 0.01 µM | 0.01 to 0.1 µM | 0.01 to 0.1 µM | < 0.01 µM | 0.1 to 1 µM | < 0.01 µM | 0.01 to 0.1 µM
12 | CCn1c(-c2cccnc2[C@H](C)OC)c2c3cc(ccc31)-c1cccc(c1)C[C@H](NC(=O)[C@H](C(C)C)N(C)C(=O)[C@H]1CCN(C(=O)/C=C/C(F)F)C1)C(=O)N1CCC[C@H](N1)C(=O)OCC(C)(C)C2 (atropisomer, axis not shown) [Example A485] | < 5 µM | > 10 µM | 1 to 10 µM | 0.01 to 0.1 µM | 1 to 10 µM | 1 to 10 µM | 0.01 to 0.1 µM | 1 to 10 µM | < 0.01 µM | 0.1 to 1 µM
13 | CC#CC(=O)N1CC[C@@H](C(=O)N(C)[C@H](C(=O)N[C@H]2Cc3cccc(c3)-c3ccc4c(c3)c(c(-c3cccnc3[C@H](C)OC)n4CC)CC(C)(C)COC(=O)[C@@H]3CCCN(N3)C2=O)C(C)C)C1 (atropisomer, axis not shown) [Example A487] | < 5 µM | 1 to 10 µM | 1 to 10 µM | 0.1 to 1 µM | 1 to 10 µM | 1 to 10 µM | 0.1 to 1 µM | 1 to 10 µM | 0.01 to 0.1 µM | 0.1 to 1 µM
14 | CCn1c(-c2cccnc2[C@H](C)OC)c2c3cc(ccc31)-c1csc(n1)C[C@H](NC(=O)[C@H](C)N(C)C(=O)[C@H]1CCN(C(=O)C#CC(C)(C)N3CCC3)C1)C(=O)N1CCC[C@H](N1)C(=O)OCC(C)(C)C2 (atropisomer, axis not shown) [Example A489] | < 5 µM | > 10 µM | 1 to 10 µM | 0.01 to 0.1 µM | 1 to 10 µM | 1 to 10 µM | 0.01 to 0.1 µM | 1 to 10 µM | 0.01 to 0.1 µM | 1 to 10 µM
15 | C=CC(=O)NC1CN(C(=O)N(C)[C@H](C(=O)N[C@H]2Cc3nc(cs3)-c3ccc4c(c3)c(c(-c3cccnc3[C@H](C)OC)n4CC)CC(C)(C)COC(=O)[C@@H]3CCCN(N3)C2=O)C(C)C)C1 (atropisomer, axis not shown) [Example A490] | < 5 µM | 1 to 10 µM | 0.1 to 1 µM | 0.01 to 0.1 µM | 0.1 to 1 µM | 0.1 to 1 µM | 0.01 to 0.1 µM | 0.1 to 1 µM | 0.01 to 0.1 µM | 0.1 to 1 µM

Reference: patent US11566007B2, “Ras inhibitors” (Revolution Medicines, Inc., priority 2019, dated 2023)
